Assay results reported in patent US4406899A, “Cephalosporins” (Bristol-Myers Company, priority 1982, dated 1983).
≈ marks a conversion by molar mass, not a printed value.

Legend:
Format in all cases: cell-based
[1] = test system: Cephalothinresistant E. coli (3 strains) and Kl. pneumoniae (3 strains); test: MIC, two-fold serial agar dilution, group (G-)-Ib; details: Escherichia coli, read-out: Geometric Mean of MIC (G-)-Ib (6)
Method: (§1) In the primary evaluation of the compounds of this invention, the Minimum Inhibitory Concentrations (MIC's) of the compounds and two reference compounds (cefotaxime and ceftazidime) were determined by the two-fold serial agar dilution method in Mueller-Hinton agar against 32 strains of test organisms in six groups.

[2] = test system: Pr. morganii (1 strain), Ent. cloacae (2 strains) and Ser. marcescens (2 strains); test: MIC, two-fold serial agar dilution, group (G-)-II; details: Mueller-Hinton agar; read-out: Geometric Mean of MIC (G-)-II (5)
Method: as §1

[3] = test system: Penicillinsensitive S. aureus (5 strains); test: MIC, two-fold serial agar dilution, group (G+)-Ia; details: Staphylococcus aureus; Mueller-Hinton agar; penicillin-sensitive S. aureus; read-out: Geometric Mean of MIC (G+)-Ia (5 strains)
Method: as §1

[4] = test system: Cephalothinsensitive E. coli (2 strains), Kl. pneumoniae (1 strain) and Pr. mirabilis (2 strains); test: MIC, two-fold serial agar dilution, group (G-)-Ia; details: Mueller-Hinton agar; cephalothin-sensitive; read-out: Geometric Mean of MIC (G-)-Ia (5)
Method: as §1, with “The preferred compounds of Formula I are those in which R^1 is hydrogen and R^2 is methyl or ethyl. In the most preferred compound, R^2 is methyl. In the” for “In the”
(G-)Ia: Cephalothinsensitive E. coli (2 strains), Kl. pneumoniae (1
strain) and Pr. mirabilis (2 strains)

[5] = test system: Penicillinresistant S. aureus (5 strains); test: MIC, two-fold serial agar dilution, group (G+)-Ib; details: Staphylococcus aureus, read-out: Geometric Mean of MIC (G+)-Ib (5)
Method: as §1
(G+)Ib: Penicillinresistant S. aureus (5 strains)

[6] = test system: Ps. aeruginosa (6 strains); test: MIC, two-fold serial agar dilution, group (G-)-III; details: Pseudomonas aeruginosa; Mueller-Hinton agar; Ps. aeruginosa; read-out: Geometric Mean of MIC (G-)-III (6)
Method: as §1

Structure (SMILES)	MIC [1] [mg/L]	MIC [2] [mg/L]	MIC [3] [mg/L]	MIC [4] [mg/L]	MIC [5] [mg/L]	MIC [6] [mg/L]
CC(C)O/N=C(\C(=O)NC1C(=O)N2C(C(=O)[O-])=C(C[N+]3(C)CCCC3)CSC12)c1csc(N)n1 (stereo not drawn) [Compound Ic, 7-[(Z)-2-(2-Propoxyimino)-2-(2-aminothiazol-4-yl)acetamido]-3-[(1-methyl-1-pyrrolidinium)methyl]-3-cephem-4-carboxylate]	1.3 (≈ 2.56 µM)	3.2 (≈ 6.29 µM)	1.4 (≈ 2.75 µM)	0.35 (≈ 0.688 µM)	3.6 (≈ 7.08 µM)	11 (≈ 21.6 µM)
CCO/N=C(\C(=O)NC1C(=O)N2C(C(=O)[O-])=C(C[N+]3(C)CCCC3)CSC12)c1csc(N)n1 (stereo not drawn) [Ib, 7-[(Z)-2-Ethoxyimino-2-(2-aminothiazol-4-yl)acetamido]-3-[(1-methyl-1-pyrrolidinium)methyl]-3-cephem-4-carboxylate]	0.32 (≈ 0.647 µM)	1 (≈ 2.02 µM)	1.4 (≈ 2.83 µM)	0.087 (≈ 0.176 µM)	3.1 (≈ 6.27 µM)	5.6 (≈ 11.3 µM)
C=CCO/N=C(\C(=O)NC1C(=O)N2C(C(=O)[O-])=C(C[N+]3(C)CCCC3)CSC12)c1csc(N)n1 (stereo not drawn) [Id, 7-[(Z)-2-Allyloxyimino-2-(2-aminothiazol-4-yl)acetamido]-3-[(1-methyl-1-pyrrolidinium)methyl]-3-cephem-4-carboxylate]	1.1 (≈ 2.17 µM)	2.4 (≈ 4.74 µM)	1.8 (≈ 3.55 µM)	0.53 (≈ 1.05 µM)	3.6 (≈ 7.11 µM)	13 (≈ 25.7 µM)
